Reference: patent US20180289713A1, “COMPOUNDS FOR TREATING AMYOTROPHIC LATERAL SCLEROSIS” (Hoffmann-La Roche Inc., priority 2015, published 2018)

Experiments:
[1] = test system: full length SMN2 minigene mRNA (HEK293H cell line stably transfected with SMN2-A minigene); experiment: SMN2 minigene mRNA splicing RT-qPCR assay in cultured cells; type: cell-based; settings: HEK293-H, concentration raising full length SMN2 minigene mRNA 1.5-fold vs vehicle, 24 hours, 7-point curve, read-out: EC1.5x minigene
Text: The term “EC1.5× concentration for production of full length SMN2 minigene mRNA” (or “EC1.5× minigene”) is defined as that concentration of test compound that is effective in increasing the amount of full length SMN2 minigene mRNA to a level 1.5-fold greater relative to that in vehicle-treated cells.
The reverse transcription-quantitative PCR-based (RT-qPCR) assay is used to quantify the level of the full length SMN2 minigene (referred to herein by the term “FL SMN2mini”) mRNA containing SMN2 exon 7 in a HEK293H cell line stably transfected with said minigene and treated with a test compound. Materials used and respective sources are listed below in Table 1.
The SMN2-A minigene construct was prepared as described in International Patent Application WO2009/151546A1 page 145 paragraph [00400] to page 147 paragraph [00412](incl. FIG. 1 and FIG. 3 therein).
HEK293H cells stably transfected with the SMN2-A minigene construct (10,000 cells/well) are seeded in 200 μL of cell culture medium (DMEM plus 10% FBS, with 200 μg/mL hygromycin) in 96-well flat-bottom plates and the plate is immediately swirled to ensure proper dispersal of cells and the formation of an even monolayer of cells. Cells are allowed to attach for 6 hours. Test compounds are serially diluted 3.16-fold in 100% DMSO to generate a 7-point concentration curve. […]
Full length SMN2-A minigene and GAPDH mRNA are quantified using the primers and probes referenced in WO2014/209841A2 on page 80 in Table 1. […]
The increase in the abundance of the FL SMN2mini mRNA relative to that in cells treated with vehicle control is determined from real-time PCR data using a modified […] method (as described in Livak and Schmittgen, Methods, 2001, 25:402-8). The amplification efficiency E is calculated from the slope of the amplification curve for FL SMN2mini and GAPDH individually. The abundance of FL SMN2mini and GAPDH mRNA are then calculated as (1+E)^−Ct, where Ct is the threshold value for each amplicon. […]

[2] = test system: patients with ALS; settings: cited from earlier work
[3] = test system: SMN levels in SOD1-ALS iPS cell and TDP43-47A iPS cell line; settings: dose dependent; SOD1-ALS and TDP43-47A iPSC-derived ALS models; cited from earlier work

Row | Structure (SMILES) | EC (1.5-fold) [1] [µM] | other results
1 | Cc1cn2nc(-c3cc(=O)n4cc(N5CCNC6(CC6)C5)ccc4n3)ccc2n1 [Example 19, 7-(4,7-diazaspiro[2.5]octan-7-yl)-2-(2-methylimidazo[1,2-b]pyridazin-6-yl)pyrido[1,2-a]pyrimidin-4-one] | 0.0102 | –
2 | Cc1cn2nc(-c3cc(=O)n4cc(N5C[C@@H](C)N[C@@H](C)C5)cc(C)c4n3)cc(C)c2n1 [Example 26, 2-(2,8-dimethylimidazo[1,2-b]pyridazin-6-yl)-7-[(3R,5S)-3,5-dimethylpiperazin-1-yl]-9-methyl-pyrido[1,2-a]pyrimidin-4-one] | 0.327 | –
3 | Cc1cn2nc(-c3cc(=O)n4cc(N5CCNC(C)(C)C5)cc(C)c4n3)cc(C)c2n1 [Example 27, 2-(2,8-dimethylimidazo[1,2-b]pyridazin-6-yl)-7-(3,3-dimethylpiperazin-1-yl)-9-methyl-pyrido[1,2-a]pyrimidin-4-one] | 0.0399 | –
4 | Nc1nc2ccc(OC(F)(F)F)cc2s1 [Riluzole] | – | improvement of muscular strength ([2]; ALS patients, some reports): does not appear to provide any improvement of muscular strength; extension of life ([2]; at least some patients with ALS): three
5 | CCN1CCC(c2cc(C)c3nc(-c4cc5c(C)nc(C)cn5n4)cc(=O)n3c2)CC1 [SMN-C3] | – | increase of SMN levels [3]: up to 1.4 fold
